Source: publication PMC8953385, “2-Styrylchromones: Cytotoxicity and Modulation of Human Neutrophils’ Oxidative Burst” (Pharmaceuticals, 2022)

Tests used:
human neutrophils = experiment: Annexin V/PI flow cytometric assay of neutrophils’ viability; assay type: cell-based; settings: for Higher 2-SC concentration that did not affect human neutrophils’ viability: annexin V/PI assay, 40 min incubation at 37 °C
Excerpt: (§1) Following the Declaration of Helsinki and the approval of patient-related procedures and protocols by the Ethics Committee of Centro Hospitalar do Porto, Portugal, venous blood was collected from healthy human blood donors, after informed consent. The blood was stored into K3EDTA vacuum tubes after antecubital venipuncture of the donors. In order to obtain the isolated neutrophils, the density gradient centrifugation method was applied, as previously reported, with modifications. In brief, in a 15 mL polypropylene tube, 3 mL of histopaque 1119 were added followed by 3 mL of histopaque 1077 and finally, 4.5 mL of the collected blood were slowly added. Each tube was centrifuged at 900× g at 20 °C for 30 min, with a medium acceleration and deceleration speed. Following centrifugation, the neutrophils’ portion was harvested, and PBS was added to double the volume. The neutrophils’ suspension was then centrifuged at 850× g at 4 °C for 5 min, using a maximum acceleration and deceleration speed. The supernatant was discarded, and the neutrophils’ pellet was resuspended in PBS and afterward milli-Q water was added to lyse the residual erythrocytes. The tube was gently homogenized and after a few minutes, 3% NaCl was added to restore isotony, and then centrifuged again at 850× g at 4 °C for 5 min, using a maximum acceleration and deceleration speed. The supernatant was discarded, and a neutrophils’ pellet was obtained. After isolation, the neutrophils’ pellet was resuspended in the incubation media, tris-glucose buffer (25 mM Trizma® base, 5.5 mM D-glucose, 140 mM NaCl, 1.26 mM CaCl2, 0.81 mM MgSO4, 5.37 mM KCl, pH = 7.4). Neutrophils’ suspension was kept on ice, under soft shaking, until use. The trypan blue exclusion method was used to determine cells’ yield and viability.
(§2) The effect of the studied 2-SC on neutrophils’ viability was assessed by flow cytometry, after simultaneous staining with FITC Annexin V and propidium iodide (PI) (Figure S1), as previously reported by our research group, with modifications. After isolation, neutrophils (1 × 10^6 cells/mL) were incubated with 2-SC (up to 100.00 μM) or DMSO for 40 min, at 37 °C, in a 48-well plate. At the end of incubation, the content of each well was transferred to conical microtubes and centrifuged at 400× g at 20 °C for 5 min. After discarding the supernatant, the neutrophils’ pellet was resuspended in PBS and centrifuged under the previous conditions. Once the supernatant was removed, the pellet was resuspended in 10× diluted binding buffer, and then PI and annexin V were added. This mixture was incubated in the dark at room temperature for 15 min, and finally, 10× diluted binding buffer was added. In a flow cytometer, the fluorescence signal, of at least 10,000 cells/sample, were collected in logarithmic mode and followed in channels 1 and 3. The green fluorescence corresponding to annexin V FITC was accompanied in channel 1 and plotted as a histogram of FL1 staining, whereas the fluorescence corresponding to PI was monitored in channel 3 and plotted in the same histogram but as FL3 staining. The collected data were analyzed with the BD Accuri™ C6 software. The data analysis was restricted to the neutrophils’ population. Thus, according to the light-scattering properties of neutrophils (in a forward versus side scatter plot), a polygon gate was drawn, where debris and other blood cells were excluded. The effect of 2-SC on neutrophils’ viability was expressed as a relative percentage of apoptotic and/or necrotic cells when compared to the control (without 2-SC).

[1] = tested on: human neutrophils’ oxidative burst; experiment: Neutrophils’ oxidative burst, PMA stimulation, luminol chemiluminescence; assay type: cell-based; settings: for inhibition at 75 µM: 75.00 µM (highest tested concentration); for inhibition at 25 µM: 25.00 µM (highest tested concentration); for IC50: PMA 160.00 nM, luminol 500.00 μM, mean ± SEM, read-out: IC50, inhibition of human neutrophils’ oxidative burst; for inhibition at 50 µM: 50.00 µM (highest tested concentration); for Times less active than C8 (oxidative burst): comparison of IC50 values with C8
Excerpt: as §1
The effect of 2-SC on the modulation of neutrophils’ oxidative burst was assessed after the stimulation of these cells with PMA by monitoring the oxidation of chemiluminescent probe, luminol, by the generated reactive species (Figure S2), according to a previously described methodology. Briefly, neutrophils (1 × 10^6 cells/mL) were pre-incubated with luminol (500.00 μM), and 2-SC (0.00–100.00 μM) or DMSO, at the final concentrations indicated. After this pre-incubation, at 37 °C for 5 min, PMA (160.00 nM) was added, and in turn, neutrophils’ stimulation was initiated. Kinetic readings were immediately initiated and followed for 40 min, at 37 °C, in a microplate reader. The arbitrary chemiluminescence value was taken at the peak of the curve, and the results were expressed as the inhibition percentage of luminol oxidation.
GraphPad Prism 6 software was used to plot the curves of percentage of inhibition versus concentrations of compound, from which the concentration that produces 50% of inhibition (IC50) was determined. GraphPad Prism 6 software was also used to perform all statistical analyses. […] In all cases, p-values < 0.05 were considered statistically significant. The results are expressed as mean ± standard error of the mean (SEM).

[2] = Annexin V/PI flow cytometric assay of neutrophils’ viability; assay type: cell-based, human; settings: human, isolated human neutrophils, pH 7.4; 75.00 μM; representative plot, Figure 4; read-out: Viable cells [annexin V (−)/PI (−)], lower left quadrant
Excerpt: as §1, §2

[3] = Homo sapiens, Neutrophil, read-out: Inhibitory activity (% ± SEM), neutrophils’ oxidative burst

Compound	Higher 2-SC concentration that did not affect human neutrophils’ viability (human neutrophils) [µM]	IC50 ([1]; Homo sapiens, Neutrophil) [nM]	also measured
O=c1cc(/C=C/c2ccccc2)oc2ccccc12 [A1]	75.00	–	inhibition at 75 µM [1, 3]: < 30%
O=c1cc(/C=C/c2ccccc2)oc2cccc(O)c12 [A2]	6.25	–	–
O=c1cc(/C=C/c2ccccc2)oc2cc(O)ccc12 [A3]	75.00	–	viability at 40 min, 75 µM [2]: 84.3%; Effect on human neutrophils’ viability (human neutrophils; 75.00 μM): showed no effect on human neutrophils’ viability; inhibition at 75 µM [1, 3]: 53 ± 4%
COc1cccc2oc(/C=C/c3ccccc3)cc(=O)c12 [A5]	6.25	–	–
O=c1cc(/C=C/c2cccc(O)c2)oc2ccccc12 [A6]	100.00	–	inhibition at 100 µM ([1]; Homo sapiens, Neutrophil, 100.00 µM (highest tested concentration), read-out: Inhibitory activity (% ± SEM), neutrophils’ oxidative burst): < 30%
O=c1cc(/C=C/c2cccc(O)c2)oc2cccc(O)c12 [A7]	6.25	–	–
O=c1cc(/C=C/c2ccccc2O)oc2cccc(O)c12 [A8]	25.00	–	inhibition at 25 µM [1, 3]: < 30%
O=c1cc(/C=C/c2ccc(O)cc2)oc2ccccc12 [B1]	25.00	7500 ± 400	Effect on total neutrophils’ population percentage (human neutrophils; 50.00 μM): affected the total neutrophils’ population percentage
O=c1cc(/C=C/c2ccc(O)cc2)oc2cc(O)ccc12 [B3]	25.00	4100 ± 300	–
O=c1cc(/C=C/c2ccc(O)cc2)oc2cc(O)cc(O)c12 [B4]	6.25	3100 ± 300	–
COc1cc(O)c2c(=O)cc(/C=C/c3ccc(O)cc3)oc2c1 [B5]	6.25	–	–
O=c1cc(/C=C/c2ccc(O)c(O)c2)oc2ccccc12 [B6]	12.50	1000 ± 100	Times more active than B1 (oxidative burst) ([1]; comparison of IC50 values with B1): ~7.5 times
O=c1cc(/C=C/c2ccc(O)c(O)c2)oc2cccc(O)c12 [B7]	0.38	–	Effect on human neutrophils’ viability (human neutrophils; 0.38 μM): no effect on the viability was observed; Inhibitory activity (% ± SEM), neutrophils’ oxidative burst ([1]; 0.38 µM (highest tested concentration)): did not show an inhibitory effect; inhibition at 0.38 µM ([1]; Homo sapiens, Neutrophil, 0.38 µM (highest tested concentration), read-out: Inhibitory activity (% ± SEM), neutrophils’ oxidative burst): < 30%
O=c1cc(/C=C/c2ccc(O)c(O)c2)oc2cc(O)ccc12 [B8]	25.00	700 ± 100	–
O=c1cc(/C=C/c2ccc(O)c(O)c2)oc2cc(O)cc(O)c12 [B9]	12.50	800 ± 100	–
COc1ccc2c(=O)cc(/C=C/c3ccc(O)c(O)c3)oc2c1 [B10]	6.25	1000 ± 100	–
COc1cc(OC)c2c(=O)cc(/C=C/c3ccc(O)c(O)c3)oc2c1 [B11]	12.50	800 ± 100	–
O=c1cc(/C=C/c2ccc(O)c(O)c2)oc2c(O)c(O)ccc12 [B12]	12.50	900 ± 300	–
COc1ccc2c(=O)cc(/C=C/c3ccc(O)c(O)c3)oc2c1OC [B13]	12.50	1000 ± 200	–

Compound	Higher 2-SC concentration that did not affect human neutrophils’ viability (human neutrophils) [µM]	IC50 ([1]; Homo sapiens, Neutrophil) [nM]	also measured
COc1ccc(/C=C/c2cc(=O)c3c(OC)cccc3o2)cc1OC [C3]	50.00	–	inhibition at 50 µM [1, 3]: 54 ± 4%
COc1ccc2c(=O)cc(/C=C/c3ccc(OC)c(OC)c3)oc2c1 [C4]	37.50	24200 ± 300	Times less active than C8 (oxidative burst) [1]: about 14 times
COc1cc(OC)c2c(=O)cc(/C=C/c3ccc(OC)c(OC)c3)oc2c1 [C5]	75.00	–	inhibition at 50 µM [1, 3]: 54 ± 2%
COc1ccc(/C=C/c2cc(=O)c3ccc(OC)c(OC)c3o2)cc1OC [C6]	37.50	20000 ± 2000	Times less active than C8 (oxidative burst) [1]: ~17 times
COc1ccc(/C=C/c2cc(=O)c3ccc(OCc4ccccc4)c(OCc4ccccc4)c3o2)cc1OC [C7]	25.00	–	inhibition at 25 µM [1, 3]: < 30%
O=c1cc(/C=C/c2ccc(OCc3ccccc3)c(OCc3ccccc3)c2)oc2ccccc12 [D1]	12.50	–	–
COc1cc(OC)c2c(=O)cc(/C=C/c3ccc(OCc4ccccc4)c(OCc4ccccc4)c3)oc2c1 [D2]	12.50	–	–
COc1ccc2c(=O)cc(/C=C/c3ccc(OCc4ccccc4)c(OCc4ccccc4)c3)oc2c1OC [D3]	12.50	–	–
Cc1ccc(/C=C/c2cc(=O)c3ccccc3o2)cc1 [E1]	25.00	–	–
Cc1ccc(/C=C/c2cc(=O)c3c(O)cccc3o2)cc1 [E2]	12.50	–	–
O=c1cc(/C=C/c2ccc([N+](=O)[O-])cc2)oc2cccc(O)c12 [F2]	12.50	–	–
O=c1cc(/C=C/c2cccc(Cl)c2)oc2cccc(O)c12 [G1]	12.50	–	–
O=c1cc(/C=C/c2ccc(Cl)c(Cl)c2)oc2cccc(O)c12 [G3]	25.00	–	inhibition at 25 µM [1, 3]: < 30%
O=c1cc(/C=C/c2c(Cl)cccc2Cl)oc2cccc(O)c12 [G4]	25.00	–	inhibition at 25 µM [1, 3]: < 30%
COc1ccc2c(=O)c(Br)c(/C=C/c3ccccc3)oc2c1 [H1]	12.50	–	–
COc1cc(OC)c2c(=O)c(Br)c(/C=C/c3ccccc3)oc2c1 [H2]	50.00	–	inhibition at 50 µM [1, 3]: < 30%
COc1ccc2c(=O)c(Br)c(/C=C/c3ccc(OC)c(OC)c3)oc2c1 [H3]	12.50	–	–
O=c1c(O)c(-c2ccc(O)c(O)c2)oc2cc(O)cc(O)c12 [Quercetin, quercetin, reference compound]	–	800 ± 100	–
